Results published in patent US20240166622A1, “FLUORINATED QUINOLINE, QUINOXALINE AND BENZO[B][1,4]OXAZINE DERIVATIVES AS DIHYDROOROTATE DEHYDROGENASE (DHODH) INHIBITORS FOR THE TREATMENT OF CANCER, AUTOIMMUNE AND INFLAMMATORY DISEASES” (Janssen Biotech, Inc., priority 2019, published 2024).

Columns and labels:
MOLM-13 cells = test: MOLM-13 Cellular Assay; type: cell-based; details: Homo sapiens, 72 hours, cell viability by CellTiter-Glo
Experimental: MOLM-13 cells were obtained from DSMZ and were maintained in RPMI 1640+Glutamax+25 mM HEPES (Invitrogen, catalog number 72400) supplemented with 10% heat inactivated fetal bovine serum (FBS; Invitrogen, catalog number 16140). The day prior to assay set-up, cells were pelleted, resuspended in fresh media, counted, and cells were plated at 0.4×10^6 cell/mL in a T150 flask. On the day of the assay, cells were pelleted, resuspend in fresh media, counted, and seeded at 5,000 cells/well in white opaque 96-well tissue culture treated microplates (Perkin Elmer, catalog number 6005680). Cells were exposed to different concentrations of test compounds at 37° C., 5% CO2 for 72 hours immediately after seeding. Cell viability was acquired on a Perkin Elmer Envision 2104 multilabel reader using the CellTiter-Glo assay (Promega) according to the manufacturer's instructions.

human DHODH = human DHODH (Homo sapiens (Human), UniProt Q02127); test: DHODH Enzymatic Assay; type: biochemical; details: purified human DHODH, DCIP absorbance, end-point mode
Experimental: To detect DHODH enzyme activities, dichloroindophenol (DCIP) is added as the final electron acceptor in the assay. DCIP can accept electrons from the reduced coenzyme Q generated in the assay, or from dihydroorotate (DHO) via FMN by binding presumably to the ubiquinone pocket. […] The assay buffer contained […], pH 7.5, 150 mM NaCl, 0.5 mM EDTA, and 0.1% Triton X-100 in MilliQ water. Substrate consisting of 20 mM DHO, 5 mM CoQ6, and 1 mM DCIP in assay buffer, initiates the reaction. […] Absorbance measurements were obtained using the BMG Phera Star plate-reading spectrophotomer. Purified human DHODH was purchased from Proteros (cat. No. PR-0044). Chemicals were purchased from Sigma-Aldrich, Teknova, and Avanti Polar Lipids. Liquid handling was performed using Labcyte Echo and Formulatrix Tempest.

human DHODH, sequence (Q02127 whole entry): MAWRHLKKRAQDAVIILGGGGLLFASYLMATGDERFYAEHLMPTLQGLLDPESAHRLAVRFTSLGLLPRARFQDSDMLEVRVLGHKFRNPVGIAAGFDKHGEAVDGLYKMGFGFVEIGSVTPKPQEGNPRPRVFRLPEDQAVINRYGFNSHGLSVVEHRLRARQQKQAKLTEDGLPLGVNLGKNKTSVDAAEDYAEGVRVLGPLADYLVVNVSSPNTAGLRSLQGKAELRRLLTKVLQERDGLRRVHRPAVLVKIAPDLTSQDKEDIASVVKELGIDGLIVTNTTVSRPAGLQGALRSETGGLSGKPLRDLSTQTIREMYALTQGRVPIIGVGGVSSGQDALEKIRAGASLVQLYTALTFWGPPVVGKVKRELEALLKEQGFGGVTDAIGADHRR

| Compound | IC50 (MOLM-13 cells) [nM] | IC50 (human DHODH) [nM] |
| --- | --- | --- |
| CCn1c(CO)nn(-c2cc3c(cc2F)C(C)(O)C(c2ccccc2C)CN3C(C)C)c1=O (racemic) [Example 20, Racemic 4-Ethyl-2-(6-fluoro-4-hydroxy-1-isopropyl-4-methyl-3-(o-tolyl)-1,2,3,4-tetrahydroquinolin-7-yl)-5-(hydroxymethyl)-2,4-dihydro-3H-1,2,4-triazol-3-one] | 0.5 | 0.607 |
| CCn1c(CO)nn(-c2ccc3c(c2)N([C@@H](C)C(F)(F)F)CC(c2c(F)cccc2Cl)N3)c1=O (stereo partly drawn) [Example 4, 2-(2-(2-Chloro-6-fluorophenyl)-4-((S)-1,1,1-trifluoropropan-2-yl)-1,2,3,4-tetrahydroquinoxalin-6-yl)-4-ethyl-5-(hydroxymethyl)-2,4-dihydro-3H-1,2,4-triazol-3-one] | 3 | 2.42 |
| CCn1c(CO)nn(-c2ccc3c(c2)N([C@@H](C)C(F)(F)F)C(=O)C(c2ccccc2SC)N3)c1=O (stereo partly drawn) [Example 2, 7-(4-Ethyl-3-(hydroxymethyl)-5-oxo-4,5-dihydro-1H-1,2,4-triazol-1-yl)-3-(2-(methylthio)phenyl)-1-((S)-1,1,1-trifluoropropan-2-yl)-3,4-dihydroquinoxalin-2(1H)-one] | 100 | 588 |
| CCn1c(CO)nn(-c2cc3c(cc2F)[C@H](O)[C@@H](c2ccccc2C)CN3C(C)C)c1=O (stereo in doubt) [Example 17, 4-Ethyl-2-((3S*,4R*)-6-fluoro-4-hydroxy-1-isopropyl-3-(o-tolyl)-1,2,3,4-tetrahydroquinolin-7-yl)-5-(hydroxymethyl)-2,4-dihydro-3H-1,2,4-triazol-3-one] | ~100 | 173 |
| CCn1c(CO)nn(-c2cc3c(cc2F)c(=O)c(-c2c(F)cccc2Cl)cn3C(C)C)c1=O [Example 12, 3-(2-Chloro-6-fluorophenyl)-7-(4-ethyl-3-(hydroxymethyl)-5-oxo-4,5-dihydro-1H-1,2,4-triazol-1-yl)-6-fluoro-1-isopropylquinolin-4(1H)-one] | 30 |  |
| CCn1c(CO)nn(-c2cc3c(cc2F)C(=O)C(C)(c2ccccc2C)CN3C(C)C)c1=O (racemic) [Example 19, Racemic 7-(4-Ethyl-3-(hydroxymethyl)-5-oxo-4,5-dihydro-1H-1,2,4-triazol-1-yl)-6-fluoro-1-isopropyl-3-methyl-3-(o-tolyl)-23-dihydroquinolin-4(1H)-one] | 4 | 7.06 |
| CCn1c(CO)nn(-c2cc3c(cc2F)c(=O)c(-c2cccc(F)c2)cn3C(C)C)c1=O [Example 1, 7-(4-Ethyl-3-(hydroxymethyl)-5-oxo-4,5-dihydro-1H-1,2,4-triazol-1-yl)-6-fluoro-3-(3-fluorophenyl)-1-isopropylquinolin-4(1H)-one] | 400 | 528 |
| CCn1c(CO)nn(-c2cc3c(cc2F)C(O)C(c2ccccc2C)CN3C(C)C)c1=O (racemic) [Example 14, Racemic 4-Ethyl-2-(6-fluoro-4-hydroxy-1-isopropyl-3-(o-tolyl)-1,2,3,4-tetrahydroquinolin-7-yl)-5-(hydroxymethyl)-2,4-dihydro-3H-1,2,4-triazol-3-one] | 4 | 5.62 |
| CCn1c(CO)nn(-c2cc3c(cc2F)[C@H](O)[C@H](c2ccccc2C)CN3C(C)C)c1=O (stereo in doubt) [Example 16, 4-Ethyl-2-((3R*,4R*)-6-fluoro-4-hydroxy-1-isopropyl-3-(o-tolyl)-1,2,3,4-tetrahydroquinolin-7-yl)-5-(hydroxymethyl)-2,4-dihydro-3H-1,2,4-triazol-3-one] | 2 | 2.24 |
| CCn1c(CO)nn(-c2cc3c(cc2F)C(=O)C(c2ccccc2C)CN3C(C)C)c1=O (stereo not drawn) [Example 11, 7-(4-Ethyl-3-(hydroxymethyl)-5-oxo-4,5-dihydro-1H-1,2,4-triazol-1-yl)-6-fluoro-1-isopropyl-3-(o-tolyl)-2,3-dihydroquinolin-4(1H)-one] | 0.5 |  |
| CCn1c(CO)nn(-c2cc3c(cc2F)OC(c2c(F)cccc2Cl)C(=O)N3C(C)C)c1=O (stereo not drawn) [Example 5, 2-(2-Chloro-6-fluorophenyl)-6-(4-ethyl-3-(hydroxymethyl)-5-oxo-4,5-dihydro-1H-1,2,4-triazol-1-yl)-7-fluoro-4-isopropyl-2H-benzo[b][1,4]oxazin-3(4H)-one] | 50 | 42.3 |
| CCn1c(CO)nn(-c2cc3c(cc2F)NC(c2ccccc2C)CC3C(C)C)c1=O (racemic) [Example 13, Racemic 4-Ethyl-2-(7-fluoro-4-isopropyl-2-(o-tolyl)-1,2,3,4-tetrahydroquinolin-6-yl)-5-(hydroxymethyl)-2,4-dihydro-3H-1,2,4-triazol-3-one] | 20 | 51.7 |
| CCn1c(CO)nn(-c2cc3c(cc2F)N(C(C)=O)C(c2ccccc2C)CC3C(C)C)c1=O (stereo not drawn) [Example 24, 1-(1-Acetyl-7-fluoro-4-isopropyl-2-(o-tolyl)-1,2,3,4-tetrahydroquinolin-6-yl)-4-ethyl-3-(hydroxymethyl)-1H-1,2,4-triazol-5(4H)-one] | > 100 | 5530 |
| CCn1c(CO)nn(-c2cc3c(cc2F)N[C@H](c2ccccc2C)C[C@@H]3C(C)C)c1=O (stereo in doubt) [Example 23, 4-Ethyl-2-((2R*,4S*)-7-fluoro-4-isopropyl-2-(o-tolyl)-1,2,3,4-tetrahydroquinolin-6-yl)-5-(hydroxymethyl)-2,4-dihydro-3H-1,2,4-triazol-3-one] | 10 | 49.2 |
| CCn1c(CO)nn(-c2cc3c(cc2F)O[C@@H](c2c(F)cccc2Cl)CN3C(C)C)c1=O (single isomer, unassigned) [Example 7, (S*)-1-(2-(2-Chloro-6-fluorophenyl)-7-fluoro-4-isopropyl-3,4-dihydro-2H-benzo[b][1,4]oxazin-6-yl)-4-ethyl-3-(hydroxymethyl)-1H-1,2,4-triazol-5(4H)-one] | 0.1 | 0.256 |
| CCn1c(CO)nn(-c2cc3c(cc2F)O[C@H](c2c(F)cccc2Cl)CN3C(C)C)c1=O (single isomer, unassigned) [Example 8, (R*)-1-(2-(2-Chloro-6-fluorophenyl)-7-fluoro-4-isopropyl-3,4-dihydro-2H-benzo[b][1,4]oxazin-6-yl)-4-ethyl-3-(hydroxymethyl)-1H-1,2,4-triazol-5(4H)-one] | 3 | 5.5 |
| CCn1c(CO)nn(-c2cc3c(cc2F)C(C)=C(c2ccccc2C)CN3C(C)C)c1=O [Example 21, 4-Ethyl-2-(6-fluoro-1-isopropyl-4-methyl-3-(o-tolyl)-1,2-dihydroquinolin-7-yl)-5-(hydroxymethyl)-2,4-dihydro-3H-1,2,4-triazol-3-one] | 2 | 3.71 |
| CCn1c(CO)nn(-c2ccc3c(c2)N([C@@H](C)C(F)(F)F)C(=O)C(c2c(F)cccc2Cl)N3)c1=O (stereo partly drawn) [Example 3, 3-(2-Chloro-6-fluorophenyl)-7-(4-ethyl-3-(hydroxymethyl)-5-oxo-4,5-dihydro-1H-1,2,4-triazol-1-yl)-1-((S)-1,1,1-trifluoropropan-2-yl)-3,4-dihydroquinoxalin-2(1H)-one] | 100 | 293 |
| CCn1c(CO)nn(-c2cc3c(cc2F)N[C@@H](c2ccccc2C)C[C@H]3C(C)C)c1=O (stereo in doubt) [Example 22, 4-Ethyl-2-((2R*,4S*)-7-fluoro-4-isopropyl-2-(0-tolyl)-1,2,3,4-tetrahydroquinolin-6-yl)-5-(hydroxymethyl)-2,4-dihydro-3H-1,2,4-triazol-3-one] | 30 | 113 |
| CCn1c(CO)nn(-c2cc3c(cc2F)c(=O)c(-c2cc(C)ccc2F)cn3C(C)C)c1=O [Example 9, 7-(4-Ethyl-3-(hydroxymethyl)-5-oxo-4,5-dihydro-1H-1,2,4-triazol-1-yl)-6-fluoro-3-(2-fluoro-5-methylphenyl)-1-isopropylquinolin-4(1H)-one] | > 100 | 58.2 |
| CCn1c(CO)nn(-c2cc3c(cc2F)OC(c2c(F)cccc2Cl)CN3C(C)C)c1=O (stereo not drawn) [Example 6, 1-(2-(2-Chloro-6-fluorophenyl)-7-fluoro-4-isopropyl-3,4-dihydro-2H-benzo[b][1,4]oxazin-6-yl)-4-ethyl-3-(hydroxymethyl)-1H-1,2,4-triazol-5(4H)-one] | ~0.3 | 0.504 |
| CCn1c(CO)nn(-c2cc3c(cc2F)[C@@H](O)[C@H](c2ccccc2C)CN3C(C)C)c1=O (stereo in doubt) [Example 18, 4-Ethyl-2-((3R*,4S*)-6-fluoro-4-hydroxy-1-isopropyl-3-(o-tolyl)-1,2,3,4-tetrahydroquinolin-7-yl)-5-(hydroxymethyl)-2,4-dihydro-3H-1,2,4-triazol-3-one] | 3 |  |
| CCn1c(CO)nn(-c2cc3c(cc2F)c(=O)c(-c2ccccc2C)cn3C(C)C)c1=O [Example 10, 7-(4-Ethyl-3-(hydroxymethyl)-5-oxo-4,5-dihydro-TH-1,2,4-triazol-1-yl)-6-fluoro-1-isopropyl-3-(o-tolyl)quinolin-4(1H)-one] | 9 |  |
